Measured values: patent US4738969A, “Substituted aminopyridones and aminoquinolones having histamine H2 -receptor blocking activity” (Smith Kline & French Laboratories Limited, priority 1983, dated 1988)

Key:
histamine H2 -receptors [1] = experiment: inhibition of histamine-stimulated secretion of gastric acid from the lumen-perfused stomachs of rats anaesthetised with urethane (lumen-perfused rat test); format: in vivo; conditions: times more active than the reference compound
Text: These are actions of histamine which, according to Ash and Schild, Brit. J. Pharmac. Chemother. 27 247 (1966), are not mediated by histamine H1 -receptors.
(§1) The measurement of inhibition of histamine-stimulated secretion of gastric acid from the lumen-perfused stomachs of rats anaesthetised with urethane, and the measurement of inhibition of histamine-induced tachycardia in the isolated guinea pig right atrium, are detailed in U.S. Pat. No. 4,385,058.

histamine H2 -receptors [2] = experiment: inhibition of histamine-stimulated acid secretion in the Heidenhain Pouch Dog; format: in vivo; conditions: intravenous administration, dose levels adjusted to produce similar peak responses
histamine H2 -receptors [3] = experiment: inhibition of histamine-induced tachycardia in the isolated guinea pig right atrium (guinea pig atrium test); format: cell-based; conditions: times more active than the reference compound
Text: as §1

O=c1cc[nH]c(NCCCOc2cccc(CN3CCCCC3)c2)c1 [Example 1, 2-[3-[3-(Piperidinomethyl)phenoxy]propylaminc]-pyrid-4-one]
activity relative to 2-[2-(5-methylimidazol-4-ylmethylthio)ethylamino]pyrid-4-one (Example 16 of U.S. Pat. No. 3,932,644), lumen-perfused rat test (histamine H2 -receptors [1]): over 100 times
duration of activity compared with cimetidine (histamine H2 -receptors [2]): longer duration of activity than cimetidine
activity relative to 2-[2-(5-methylimidazol-4-ylmethylthio)ethylamino]pyrid-4-one (Example 16 of U.S. Pat. No. 3,932,644), guinea pig atrium test (histamine H2 -receptors [3]): over 100 times
